Measurements as given in patent publication US9487508B2, “SGC stimulators” (IRONWOOD PHARMACEUTICALS, INC., priority 2012, dated 2016).

Assays:
[1] = target: T1, Human soluble guanylate cyclase enzyme (hsGC) (Homo sapiens, UniProt Q02108+Q02153); experiment: Purified human sGC enzyme synergy assay in the presence of sodium nitroprusside (SNP); format: biochemical; settings: 30 μM compound, 1 μM SNP; fold change of specific activity vs DMSO control
T1 construct: purchased Enzo Inc. ALX-201-177
T1 sequence (Q02153 1-619): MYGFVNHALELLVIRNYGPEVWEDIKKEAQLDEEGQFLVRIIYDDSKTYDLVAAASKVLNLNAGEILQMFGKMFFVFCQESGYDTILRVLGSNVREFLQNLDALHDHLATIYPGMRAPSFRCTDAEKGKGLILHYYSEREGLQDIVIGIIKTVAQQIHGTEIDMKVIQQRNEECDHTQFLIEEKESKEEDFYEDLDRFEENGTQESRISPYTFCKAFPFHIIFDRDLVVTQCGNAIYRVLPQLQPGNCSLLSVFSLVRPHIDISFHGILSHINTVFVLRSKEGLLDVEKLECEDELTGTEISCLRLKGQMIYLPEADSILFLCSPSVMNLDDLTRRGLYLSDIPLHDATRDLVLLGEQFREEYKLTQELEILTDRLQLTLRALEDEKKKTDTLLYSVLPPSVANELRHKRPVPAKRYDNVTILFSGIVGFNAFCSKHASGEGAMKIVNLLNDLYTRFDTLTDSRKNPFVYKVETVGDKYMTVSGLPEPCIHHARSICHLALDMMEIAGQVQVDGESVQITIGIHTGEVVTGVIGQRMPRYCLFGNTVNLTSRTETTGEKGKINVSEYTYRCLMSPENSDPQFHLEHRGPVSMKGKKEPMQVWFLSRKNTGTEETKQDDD
T1 sequence (Q02108 1-690): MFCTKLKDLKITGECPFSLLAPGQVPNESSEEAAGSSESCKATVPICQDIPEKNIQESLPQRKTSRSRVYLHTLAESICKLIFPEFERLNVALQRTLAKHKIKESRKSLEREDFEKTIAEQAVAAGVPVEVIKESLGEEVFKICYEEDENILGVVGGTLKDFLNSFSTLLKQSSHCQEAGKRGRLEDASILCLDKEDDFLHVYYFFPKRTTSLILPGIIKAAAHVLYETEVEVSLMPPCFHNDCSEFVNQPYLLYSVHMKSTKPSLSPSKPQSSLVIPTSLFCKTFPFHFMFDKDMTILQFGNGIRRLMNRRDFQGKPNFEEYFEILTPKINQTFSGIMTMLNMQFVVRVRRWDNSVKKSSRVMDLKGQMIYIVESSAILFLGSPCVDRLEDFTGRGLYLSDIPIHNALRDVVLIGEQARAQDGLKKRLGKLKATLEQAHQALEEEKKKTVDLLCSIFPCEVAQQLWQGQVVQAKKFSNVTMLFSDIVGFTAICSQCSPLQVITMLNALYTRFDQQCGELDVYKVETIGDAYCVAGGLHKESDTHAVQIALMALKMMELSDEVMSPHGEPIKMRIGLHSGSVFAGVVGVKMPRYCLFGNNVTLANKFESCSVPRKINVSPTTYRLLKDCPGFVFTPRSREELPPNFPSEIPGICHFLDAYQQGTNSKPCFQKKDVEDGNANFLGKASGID
Method: (§1) Human soluble guanylate cyclase enzyme (hsGC) obtained from Enzo Inc. (P/N: ALX-201-177) was used to evaluate the activity of test compounds. The assay reactions contained 0.1 M Tris (pH 8.0), 0.5 mg/mL BSA (pH 8.0), 2 mM DTT, 2 mM MgCl2, 300 μM GTP, 1 mM 3-isobutyl-1-methylxanthine (IBMX) and 5 ng human soluble guanylate cyclase enzyme. Test compounds in DMSO were then added (2 μL, 10 or 30 μM final concentration) and incubated (water, 200 μL, 96-well plate format) at 37° C. for 30 minutes. The controls were carried out using 2 μL DMSO. After the 30 minute incubation, the reaction was stopped with the addition of 200 μL of cold methanol. The plate was then centrifuged at 3,200 rpm for 10 minutes at room temperature. Supernatants (200 μL) were collected and transferred to a new 96 well plate for analysis by HPLC LC/MS/MS.
(§2) An 8 point cGMP (Sigma-Aldrich P/N: G6129) standard curve was prepared in assay buffer ranging from 0.156-20 μM. Samples for the cGMP standard curve were then diluted with an equal volume of methanol resulting in final cGMP concentrations of 0.078-10 μM.
(§3) The cGMP standard curve was generated using GraphPad Prism Software.
Calculations: Specific Activity was determined by the amount of cGMP formed (nmoles) per mg of sGC per min. Enzyme “fold-change” was calculated by dividing Specific Activity for test compounds by Specific Activity of DMSO controls. […]

[2] = target: T1, Human soluble guanylate cyclase enzyme (hsGC); experiment: Purified human sGC enzyme activity assay (without SNP); format: biochemical; settings: 30 μM compound, fold change of specific activity vs DMSO control
Method: as §1, §2, §3
Calculations: Specific Activity was determined by the amount of cGMP formed (nmoles) per mg of sGC per min. Enzyme “fold-change” was calculated by dividing Specific Activity for test compounds by Specific Activity of DMSO controls.

[3] = target: T2, soluble guanylate cyclase (sGC) (Homo sapiens, UniProt Q02108+Q02153); experiment: sGC-HEK-cGMP assay with SNP incubation (LC/MS read-out); format: cell-based; settings: 10 μM SNP, 100% = BAY 41-2272 at 10 μM with 100 μM SNP
T2 construct: endogenously expressing soluble guanylate cyclase (sGC); endogenous in cells; host or cells: HEK293
T2 sequence (Q02153 1-619): T1 sequence (Q02153 1-619)
T2 sequence (Q02108 1-690): T1 sequence (Q02108 1-690)
Method: (Assay Run with SNP Incubation)
Human embryonic kidney cells (HEK293), endogenously expressing soluble guanylate cyclase (sGC), were used to evaluate the activity of test compounds. Compounds stimulating the sGC receptor should cause an increase in the intracellular concentration of cGMP. HEK 293 cells were seeded in Dulbecco's Modification of Eagle's Medium supplemented with fetal bovine serum (10% final) and L-glutamine (2 mM final) in a 200 μL volume at a density of 1×10^5 cells/well in a poly-D-lysine coated 96 well flat bottom plate and grown overnight at 37° C. Medium was aspirated and cells were washed with 1× Hank's Buffered Saline Salt Solution (200 μL). Cells were then incubated for 15 minutes at 37° C. with 200 μL of a 0.5 mM 3-isobutyl-1-methylxanthine (IBMX) solution. Test article and sodium nitroprusside solutions (x μM concentration for test article solution and 10 μM concentration for SNP solution; wherein x is one of the following concentrations);
were then added to the assay mixture (2 μL each) and the resulting mixture incubated at 37° C. for 10 minutes. After the 10 minute incubation, the assay mixture was aspirated and 0.1M HCl (200 μL) was added to the cells. The plate was incubated at 4° C. for 30 minutes in the 0.1M HCl to stop the reaction and lyse the cells. The plates were then centrifuged at 1,200 g for 5 minutes at room temperature. Supernatants were collected and transferred to a new flat bottom 96 well plate for analysis by HPLC-MS. Vehicle controls were carried out using DMSO (1%) solutions. A known sGC stimulator, BAY 41-2272, was used as the positive control. Samples were diluted with an equal volume of 1 M Ammonium Acetate (pH 7) to neutralize samples for better chromatography. A 2×cGMP standard solution was prepared in 0.1 M HCl and then diluted with an equal volume of 1 M Ammonium Acetate, with the following final concentrations in nM: 1024, 512, 256, 128, 64, 32, 16, 8, 4, 2, 1. cGMP concentrations in the test plates were determined from each sample using the LC/MS conditions shown in Table 2 below and the calculated cGMP standard curve. EC50 values were calculated from concentration-response curves generated with GraphPad Prism Software.
The biological activities of some of the compounds of Formula I or Formula Ib determined with the sGC-HEK assay with SNP incubation are summarized in Tables 3A and 3B.

[4] = test system: Guinea pig tracheal smooth muscle; experiment: Electrical field stimulated guinea pig tracheal smooth muscle contraction (ex vivo); settings: sub-maximal EFS; pooled data of three experiments; 95% CI 0.78-0.94; read-out: IC50, inhibition of EFS-induced tracheal smooth muscle contraction
Excerpt: It is possible to assess the bronchodilating effects of sGC stimulators by using the system described below. This system allowed us to determine potency, efficacy and duration of action of several sGC stimulators, as well as to assess potential side effects such as blood pressure, or heart rate changes.
Animals: Guinea pig, Dunkin Hartley, male, Full barrier-bred and certified free of specific micro-organisms on receipt 525-609 g on the experimental day, Harlan UK Ltd. Guinea pigs were housed in a group of 4 in solid-bottomed cages with Gold Flake bedding in a controlled environment (airflow, temperature and humidity). Food (FD1, Special Diet Services) and water were provided ad libitum.
On each experimental day, a guinea pig was killed by exposure to a rising concentration of CO2 and the trachea removed. […] Tissues were washed with Kreb's buffer and stimulated using the previously determined sub-maximal voltage for 1 hour to establish a stable baseline contraction prior to assessment of compound activity.
A cumulative dose response curve (DRC) to each test substance was then performed and changes in smooth muscle contraction measured. The effect of each test substance in each experiment was expressed as a percentage inhibition of the baseline contraction, normalized to the relevant vehicle controls. […]

SMILES: Nc1nc(-n2cc(-c3ncco3)c(Cc3ccccc3F)n2)ncc1F [Compound I-8]
- Enzyme Activity (increase at 30 μM with SNP) [1]: E (E = 20 to 30 fold increase)
- Enzyme Activity (increase at 30 μM without SNP) [2]: C (C = 5 to <10 fold increase)
- Emax at 10 µM ([3]; 10 μM compound, read-out: HEK assay (Percent Emax at 10 μM)): 60 to 80%
- Emax at 30 µM ([3]; 30 μM compound, read-out: HEK assay (Percent Emax at 30 μM)): 60 to 80%

SMILES: CC(C)[N+]1(C)[C@@H]2CC[C@H]1CC(OC(=O)C(CO)c1ccccc1)C2 (some centres unmarked) [Ipratropium bromide]
- IC50 [4]: 0.86 nM
